Measured values from article PMC9788223, “Biodegradation of Free Gossypol by Helicoverpa armigera Carboxylesterase Expressed in Pichia pastoris” (Toxins, 2022).

Columns and labels:
CarE CCE001a [1] = target: T1, CarE CCE001a (Helicoverpa armigera, UniProt D9IV61); assay: free gossypol depletion by HPLC; products by UPLC-QTOF/MS; format: cell-based; settings: PBS, NADPH-Na4 added, 37 °C, 1.5 h, dark; recombinant protein from P. pastoris expression, purification not described
T1 construct: no purification described
T1 sequence (D9IV61 17-555): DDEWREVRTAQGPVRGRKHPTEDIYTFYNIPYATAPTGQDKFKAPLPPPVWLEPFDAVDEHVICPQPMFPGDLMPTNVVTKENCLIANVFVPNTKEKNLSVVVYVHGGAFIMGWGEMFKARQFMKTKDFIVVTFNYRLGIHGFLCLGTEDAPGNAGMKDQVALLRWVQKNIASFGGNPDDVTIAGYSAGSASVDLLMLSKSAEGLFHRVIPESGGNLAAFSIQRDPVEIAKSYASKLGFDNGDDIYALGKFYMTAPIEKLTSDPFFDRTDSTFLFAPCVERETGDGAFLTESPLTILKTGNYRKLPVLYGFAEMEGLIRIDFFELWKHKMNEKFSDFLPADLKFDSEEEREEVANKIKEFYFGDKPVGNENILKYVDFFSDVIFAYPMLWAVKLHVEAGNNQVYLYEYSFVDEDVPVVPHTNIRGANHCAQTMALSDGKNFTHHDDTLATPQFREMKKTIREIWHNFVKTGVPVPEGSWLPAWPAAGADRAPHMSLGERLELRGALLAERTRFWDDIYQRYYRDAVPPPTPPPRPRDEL

CarE CCE001a [2] = target: T1, CarE CCE001a; assay: esterase activity, absorbance at […] nm; format: cell-based; settings: 37 °C; recombinant protein from P. pastoris expression, purification not described

| SMILES | free gossypol depletion by HPLC; products by UPLC-QTOF/MS (CarE CCE001a [1]) | esterase activity, absorbance at 450 nm (CarE CCE001a [2]) |
| --- | --- | --- |
| Cc1cc2c(C(C)C)c(O)c(O)c(C=O)c2c(O)c1-c1c(C)cc2c(C(C)C)c(O)c(O)c(C=O)c2c1O [Gossypol] | Under the influence of recombinant CarE, TG and FG levels decreased rapidly in the experimental group | – |
| CC(=O)Oc1cccc2ccccc12 [alpha-naphthyl acetate] | – | We also evaluated the enzyme activity of the recombinant CCE001a protein with the model substrate |
